Nine compounds from patent US20240409536A1, “COMPOUNDS AND METHODS FOR MODULATING SPLICING” (REMIX THERAPEUTICS INC., priority 2021, published 2024) can be followed below.

One may read the IC50 as the concentration needed to halve the response being measured.

Assay [1] relates to Target C mRNA. The experiment in a line: Gene panel canonical junction qPCR assay, Target C CJ mRNA decrease. Type of assay: cell-based. The following applies: Homo sapiens, canonical junction qPCR, read-out: Target C IC50 (decrease in CJ mRNA levels). In outline:
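A673 or K562 cells were treated with compound, and lysates underwent cDNA synthesis and qPCR with a CY5 5′-nuclease probe or primer spanning the canonical exon junction. ΔCt versus GAPDH, GUSB or PPIA was normalized to DMSO (2^(−ΔΔCt)), converted to percentage response and fitted four-parameter logistic for IC50.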
In general terms: In qPCR the cycle at which signal appears reflects the starting amount.

The subject of assay [2] is Target C. The experiment in a line: HiBiT protein abundance assay, Target C (K562 HiBiT knock-in cells). Format: cell-based, human. Particulars: 24 hours. In outline:
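K562 knock-in cells (10000/well, IMDM+1% FBS) treated 24 h at 37 °C with 10-point 3-fold dilutions, top final 10 μM, DMSO ≤0.25%. HiBiT lytic luminescence read; response normalized to unmodified K562 and DMSO-treated controls. IC50 interpolated at 50% abundance by four-parameter logistic fit.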
A general note: The HiBiT peptide binds its large partner to form an active luciferase.

Some results are limits rather than exact numbers.

On to `CNC1CCN(c2ccc(C(=O)Nc3cc(F)c4nc(C)cn4c3)c3ncc(OC)nc23)C1` (stereo in doubt) [Compound 227, (R)—N-(8-fluoro-2-methylimidazo[1,2-a]pyridin-6-yl)-2-methoxy-8-(3-(methylamino)pyrrolidin-1-yl)quinoxaline-5-carboxamide 2,2,2-trifluoroacetate], for which the IC50 in assay [1] is more than 10 µM; in assay [2] it was 0.1 to 1 µM.

As to `Cc1cn2cc(NC(=O)c3ccc(N4CCC(NC(C)(C)C)C4)c4ccnnc34)cc(F)c2n1` (centres unmarked) [Compound 109], the IC50 in assay [2] is 1 to 10 µM.

Turning to `Cc1cnc2c(C(=O)Nc3cc(F)c4nc(C)cn4c3)ccc(N3C[C@@H](C)N[C@@H](C)C3)c2n1` [Compound 217, 8-((3R,5S)-3,5-dimethylpiperazin-1-yl)-N-{8-fluoro-2-methylimidazo[1,2-a]pyridin-6-yl}-2-methylquinoxaline-5-carboxamide], the IC50 in assay [1] and in assay [2] was 0.1 to 1 µM throughout.

Turning to `CCNC1CCN(c2ccc(C(=O)Nc3cc(F)c4nc(C)cn4c3)c3nc(C)ccc23)CC1` [Compound 228, 5-[4-(ethylamino)piperidin-1-yl]-N-{8-fluoro-2-methylimidazo[1,2-a]pyridin-6-yl}-2-methylquinoline-8-carboxamide], the IC50 in assay [1] and in assay [2] was 0.1 to 1 µM throughout.

`COCCOc1ccc2c(N3CCC(N(C)C)CC3)ccc(C(=O)Nc3cc(F)c4nc(C)cn4c3)c2n1` [Compound 229, 5-[4-(dimethylamino)piperidin-1-yl]-N-{8-fluoro-2-methylimidazo[1,2-a]pyridin-6-yl}-2-(2-methoxyethoxy)quinoline-8-carboxamide]: the IC50 in assay [1] and in assay [2] was more than 10 µM each time.

For `Cc1cn2cc(NCc3ccc(N4CCNCC4)c4ccnnc34)cc(F)c2n1` [Compound 230, 8-fluoro-2-methyl-N-{[5-(piperazin-1-yl)cinnolin-8-yl]methyl}imidazo[1,2-a]pyridin-6-amine], the IC50 in assay [1] and in assay [2] was more than 10 µM throughout.

Regarding `CNC1CCN(c2ccc(C(=O)Nc3cc(F)c4nc(C)cn4c3)c3nnccc23)C1` (centres unmarked) [Compound 231, N-{8-fluoro-2-methylimidazo[1,2-a]pyridin-6-yl}-5-[3-(methylamino)pyrrolidin-1-yl] cinnoline-8-carboxamide], the concentration for half-maximal inhibition (IC50) is more than 10 µM in assay [1] and 1 to 10 µM in assay [2].

On to `COCCOc1ccc2c(N3C[C@@H](C)N[C@@H](C)C3)ccc(C(=O)Nc3cc(F)c4nc(C)cn4c3)c2n1` [Compound 232, 5-[(3R,5S)-3,5-dimethylpiperazin-1-yl]-N-{8-fluoro-2-methylimidazo[1,2-a]pyridin-6-yl}-2-(2-methoxyethoxy)quinoline-8-carboxamide], for which the IC50 in assay [1] and in assay [2] was 1 to 10 µM each time.

Consider `CCNC1CCN(c2ccc(C(=O)Nc3cc(F)c4nc(C)cn4c3)c3nc(OCCOC)ccc23)CC1` [Compound 233, 5-[4-(ethylamino)piperidin-1-yl]-N-{8-fluoro-2-methylimidazo[1,2-a]pyridin-6-yl}-2-(2-methoxyethoxy)quinoline-8-carboxamide], for which the IC50 in assay [1] and in assay [2] was 1 to 10 µM throughout.
